Measurements as given in patent publication US20230212215A1, “GLUCOCORTICOID RECEPTOR MODULATORS” (TRUSTEES OF DARTMOUTH COLLEGE, priority 2020, published 2023).

Biological target: T1, human GR (Homo sapiens, UniProt P04150)
T1 construct: purchased Indigo Biosciences
T1 sequence (P04150 1-777): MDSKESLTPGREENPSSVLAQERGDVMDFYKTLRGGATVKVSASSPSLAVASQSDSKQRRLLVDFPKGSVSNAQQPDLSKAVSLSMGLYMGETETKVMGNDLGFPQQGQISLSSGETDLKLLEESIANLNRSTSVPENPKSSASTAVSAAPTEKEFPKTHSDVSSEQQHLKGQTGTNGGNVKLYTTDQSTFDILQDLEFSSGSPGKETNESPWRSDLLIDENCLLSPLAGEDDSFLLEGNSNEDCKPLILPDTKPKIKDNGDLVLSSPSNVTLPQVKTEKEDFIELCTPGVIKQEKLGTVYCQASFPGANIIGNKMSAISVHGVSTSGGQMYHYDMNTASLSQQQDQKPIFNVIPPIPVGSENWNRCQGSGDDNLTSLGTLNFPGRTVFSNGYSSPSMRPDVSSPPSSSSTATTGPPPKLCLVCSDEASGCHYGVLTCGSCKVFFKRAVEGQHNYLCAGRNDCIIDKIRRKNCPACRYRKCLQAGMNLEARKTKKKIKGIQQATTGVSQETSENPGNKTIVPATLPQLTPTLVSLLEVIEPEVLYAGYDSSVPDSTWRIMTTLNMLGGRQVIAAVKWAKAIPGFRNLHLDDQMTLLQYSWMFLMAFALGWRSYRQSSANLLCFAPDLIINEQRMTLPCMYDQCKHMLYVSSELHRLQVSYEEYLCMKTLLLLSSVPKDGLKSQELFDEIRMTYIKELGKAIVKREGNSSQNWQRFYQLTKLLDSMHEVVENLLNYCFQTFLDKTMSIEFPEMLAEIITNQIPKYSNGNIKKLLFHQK
Assay: human GR antagonist assay (Indigo Biosciences)
Assay type: cell-based
Excerpt: The activity of a compound can be determined using various known methods. For example, GR assays can be used. Such GR assays include binding assays using, for example, cells transfected with the human glucocorticoid receptor (NR3C1). Several cell based model systems that allow sensitive detection and monitoring of steroids or other compounds with GR bioactivity are known. Most cell based GR reporter models use transgenic gene constructs that include a glucocorticoid response element (GRE) that controls reporter gene (e.g., lucifersrase) expression. For example, a human GR Reporter Assay System is commercially available from Indigo Biosciecnes. […] The principle application of such an assay product is to quantify functional activities, either agonist or antagonist, that a compound may exert against the human glucocorticoid receptor.
The activity of certain compounds were tested in a human GR antagonist assay (Indigo Biosciences).

IC50 (nM) (Table 1)	EC50 (Table A)	IC50 (text of Example 2)	Structure (SMILES)	HillSlope (Table 1)
No activity	not active	not active	Cc1ncccc1NC(=O)c1ccc2c(c1)CCC1=C3C[C@H](O)C[C@]3(C)CC[C@]12Cc1ccccc1 [Compound A, (9S,13S,16R)-9-benzyl-16-hydroxy-13-methyl-N-(2-methylpyridin-3-yl)-7,9,11,12,13,15,16,17-octahydro-6H-cyclopenta[α]phenanthrene-3-carboxamide]	–
–	–	–	CC#C[C@]1(O)CC[C@H]2[C@@H]3CCC4=CC(=O)CCC4=C3[C@@H](c3ccc(N(C)C)cc3)C[C@@]21C [Mifepristone, reference compound]	0.8706
